Measurements published in paper PMC11863921 (BMC Biology, 2025).
“Also recorded” adds a separate entry of the source.

Target: T1, AsolRXFP/LGR3 (Acanthaster planci, UniProt A0A8B7XXQ8)
T1 sequence (A0A8B7XXQ8 1-847): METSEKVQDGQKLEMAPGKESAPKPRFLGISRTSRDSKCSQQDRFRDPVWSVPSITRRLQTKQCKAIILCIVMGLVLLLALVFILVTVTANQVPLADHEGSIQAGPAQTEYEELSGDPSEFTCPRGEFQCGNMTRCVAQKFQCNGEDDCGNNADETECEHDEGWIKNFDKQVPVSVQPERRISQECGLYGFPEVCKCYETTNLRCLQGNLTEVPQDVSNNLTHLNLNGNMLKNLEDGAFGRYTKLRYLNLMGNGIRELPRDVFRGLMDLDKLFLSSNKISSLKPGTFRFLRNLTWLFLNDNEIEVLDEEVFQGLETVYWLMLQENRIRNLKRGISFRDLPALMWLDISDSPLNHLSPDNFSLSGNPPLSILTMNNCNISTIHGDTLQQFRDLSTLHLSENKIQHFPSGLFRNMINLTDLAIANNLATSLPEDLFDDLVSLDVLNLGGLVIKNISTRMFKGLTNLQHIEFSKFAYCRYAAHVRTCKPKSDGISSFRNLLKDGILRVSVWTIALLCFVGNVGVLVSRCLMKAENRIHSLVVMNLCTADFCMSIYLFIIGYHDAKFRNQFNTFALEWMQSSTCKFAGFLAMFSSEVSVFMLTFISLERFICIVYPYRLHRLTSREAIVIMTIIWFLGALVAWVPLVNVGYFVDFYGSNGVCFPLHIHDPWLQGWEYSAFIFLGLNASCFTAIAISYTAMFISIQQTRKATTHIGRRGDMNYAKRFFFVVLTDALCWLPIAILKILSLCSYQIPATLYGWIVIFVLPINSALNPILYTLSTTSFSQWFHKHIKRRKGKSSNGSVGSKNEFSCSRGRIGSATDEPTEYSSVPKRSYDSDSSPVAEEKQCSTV
Assay: CRE reporter gene assay in CHO cells stably expressing AsolRXFP/LGR3
Format: cell-based, A. cf. solaris
Conditions: for cAMP activity / CRE reporter gene activation: increasing concentrations
Experimental: Human embryonic kidney (HEK) 293T cells were grown in complete Dulbecco’s modified Eagle medium (DMEM; Gibco) and Chinese hamster ovary (CHO) cells in complete DMEM/F12 (Gibco). Media was supplemented with 10% fetal bovine serum, 1% penicillin/streptomycin, and 1% L‐glutamine (complete media; All from Gibco). HEK-293T cells were transfected with LipofectAMINE 2000 (Invitrogen) and CHO cells with CHO TransIT and CHO-Mojo (Mirus), both according to the manufacturer’s instructions.
CHO and HEK293T cells stably expressing AsolRXFP/LGR3 were generated by lentiviral transduction. HEK293T cells were plated in 10 cm dishes for transfection with pLenti X1-Ef1α-COT-RXFP-like 2-IRES-GFP along with the lentiviral packaging and envelope plasmids pMDL, pRSV‐Rev, and pCMV‐VSV‐G, using Lipofectamine 2000. The following day, media containing lentivirus was harvested and filtered through a 0.45 μm syringe filter. Fresh CHO and HEK293T cells in 10 cm plates were transduced by replacing the cell culture media with the filtered media containing lentivirus, mixed with 4 μg/mL hexadimethrine bromide (Polybrene) to increase transduction efficiency. Three rounds of transduction were performed over 32 h, before cells were allowed to recover for three days in complete media. Transduced cells were sorted from non-transduced cells using the GFP reporter by fluorescence-activated cell sorting (FACS), using a Becton Dickinson FACSAria III as previously described. Single, live cells with low GFP expression were selected to represent low AsolRXFP/LGR3 expression and were subsequently grown to confluency in a T175 flask and cryopreserved.
The ability of the A. cf. solaris receptors to respond to A. cf. solaris RGP1 and RGP2 peptides was tested using a pCRE β-galactosidase reporter gene assay in CHO cells stably expressing AsolRXFP/LGR3 or HEK-293T cells transfected with AsolRXFP/LGR4 (long) or AsolRXFP/LGR4 (short), as described in detail previously. Importantly, the pCRE β-galactosidase reporter gene assay measures both Gs and Gq activation downstream of GPCR activation by monitoring CREB-mediated gene transcription. Cells were seeded in 96 well plates and were left to grow overnight at 37 °C in an incubator with 5% CO2. The next day the cells were transfected with different amounts of the pCRE reporter gene DNA [57] and/or pcDNA3.1 receptor constructs, as described above, and were left to grow overnight in an incubator. Triplicate wells in each plate were transfected with the equivalent amount of pCRE reporter gene DNA and pcDNA3.1 without a receptor-encoding insert as the background CRE activity control. The next day cells were exposed in triplicate wells to increasing concentrations of peptides diluted in media for 6 h at 37 °C in an incubator. Triplicate parallel wells contained 5 µM forskolin and blank media as positive and negative controls, respectively. At the end of the incubation period, the media was aspirated, and the plate was stored at − 80 °C until development. Plates were thawed for the development of β-galactosidase activity, as described previously, with absorbance being read at 570 nm on an Epoch 2 microplate reader. The data were analyzed as the percentage of the response induced by 5 µM forskolin and pooled followed by fitting to a three-parameter sigmoidal dose–response curve using GraphPad Prism 10. Experiments were performed at least three times with triplicate determinations in each assay (Additional file 17: Dataset S10).

| Substance | efficacy (Emax) (CHO-AsolRXFP/LGR3 cells, 5 µM forskolin = reference, n = 6) [% forskolin response] | cAMP activity / CRE reporter gene activation (CHO-AsolRXFP/LGR3 cells) | relative potency/efficacy as ligand for AsolRXFP/LGR3 (compared with RGP1) |
| --- | --- | --- | --- |
| Acanthaster cf. solaris Relaxin-like gonad-stimulating peptide 1 [AsolRGP1] | 38.6 ± 6.9 | concentration-dependent cAMP activity; also recorded: dose-dependent increase in CRE reporter gene activation |  |
| Acanthaster cf. solaris Relaxin-like gonad-stimulating peptide 2 [AsolRGP2] |  | only at high concentrations; also recorded: small but significant response but no clear dose–response | much lower than that of RGP1 |
